Reference: PubChem BioAssay AID248 (DTP/NCI, 2004)
Where “and” joins values, the source holds several entries; their conditions need not be identical. Equal values may be shown once. Toxic doses and inconclusive results are not listed.

Test system: L1210 leukemia ip in BDF1 mice, survival T/C
Assay: NCI In Vivo Anticancer Drug Screen. Data for tumor model L1210 Leukemia (intraperitoneal) in B6D2F1 (BDF1) mice
Settings: endpoint: mean survival time, higher = longer survival
How it was run: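 Each compound was tested against a transplantable tumor grown in mice. The endpoint was survival, with treated animals benchmarked against vehicle controls as a simple ratio.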

[1] = dose: 50.0 mg/kg/injection, schedule: Q01DX009 (ip), vehicle: saline with Tween-80
[2] = dose: 100.0 mg/kg/injection, schedule: Q01DX009 (ip), vehicle: saline with Tween-80
[3] = dose: 200.0 mg/kg/injection, schedule: Q01DX009 (ip), vehicle: saline with Tween-80
[4] = dose: 100.0 mg/kg/injection, schedule: Q01DX001 (ip), vehicle: saline
[5] = dose: 200.0 mg/kg/injection, schedule: Q01DX001 (ip), vehicle: saline
[6] = dose: 400.0 mg/kg/injection, schedule: Q01DX001 (ip), vehicle: saline
[7] = dose: 100.0 mg/kg/injection, schedule: Q04DX003 (ip), vehicle: saline
[8] = dose: 200.0 mg/kg/injection, schedule: Q04DX003 (ip), vehicle: saline
[9] = dose: 400.0 mg/kg/injection, schedule: Q04DX003 (ip), vehicle: saline
[10] = dose: 100.0 mg/kg/injection, schedule: Q04DX003 (ip), vehicle: Klucel (hydroxypropylcellulose) (HPC)
[11] = dose: 200.0 mg/kg/injection, schedule: Q04DX003 (ip), vehicle: Klucel (hydroxypropylcellulose) (HPC)
[12] = dose: 400.0 mg/kg/injection, schedule: Q04DX003 (ip), vehicle: Klucel (hydroxypropylcellulose) (HPC)
[13] = dose: 50.0 mg/kg/injection, schedule: Q01DX001 (ip), vehicle: saline
[14] = dose: 100.0 mg/kg/injection, schedule: Q04DX003 (ip), vehicle: saline with Tween-80
[15] = dose: 200.0 mg/kg/injection, schedule: Q04DX003 (ip), vehicle: saline with Tween-80
[16] = dose: 400.0 mg/kg/injection, schedule: Q04DX003 (ip), vehicle: saline with Tween-80

For `CCC(C)(C)C(=O)O`, the T/C [1] was 104 % of control, the T/C [2] was 98 % of control and the T/C [3] was 98 % of control.

`CCOc1nc2ccccc2c2cc3ccccc3cc12` was tested, and the T/C [4] was 103 % of control, the T/C [5] was 109 % of control and the T/C [6] was 111 % of control.

In the case of `C=CCN1CCCCC1C1(c2ccccc2)CCCC1` (configuration not stated), the T/C (dose: 75.0 mg/kg/injection, schedule: Q01DX001 (ip), vehicle: acid diluted with saline) is reported as 92 % of control.

With `O=C(O)/C=C/c1ccccc1C(=O)O` the T/C [7] was 100 % of control, the T/C [8] was 91 % of control and the T/C [9] was 103 % of control.

For `CCOC(=O)C(CC(C)C)NC(=O)CCCCSc1ncnc2nc[nH]c12` (configuration not stated), the T/C (dose: 25.0 mg/kg/injection, schedule: Q01DX009 (ip), vehicle: saline with Tween-80) was 110 % of control, the T/C (dose: 25.0 mg/kg/injection, schedule: Q01DX009 (oral), vehicle: saline with Tween-80) was 100 % of control and the T/C [1] was 112 % of control. The T/C (dose: 50.0 mg/kg/injection, schedule: Q01DX009 (oral), vehicle: saline with Tween-80) was 92 % of control, the T/C [2] was 100 % of control and the T/C (dose: 100.0 mg/kg/injection, schedule: Q01DX009 (oral), vehicle: saline with Tween-80) was 100 % of control. For the same molecule, the T/C [3] was 98 % of control, the T/C (dose: 200.0 mg/kg/injection, schedule: Q01DX009 (oral), vehicle: saline with Tween-80) was 98 % of control and the T/C (dose: 400.0 mg/kg/injection, schedule: Q01DX009 (ip), vehicle: saline with Tween-80) was 115 % of control. For the same molecule, the T/C (dose: 400.0 mg/kg/injection, schedule: Q01DX009 (oral), vehicle: saline with Tween-80) was 107 % of control and the T/C (dose: 800.0 mg/kg/injection, schedule: Q01DX009 (oral), vehicle: saline with Tween-80) was 111 % of control.

For `CCNC(=S)Nc1cccc(C)c1`, the T/C (dose: 25.0 mg/kg/injection, schedule: Q04DX002 (ip), vehicle: gum acacia) was 102 % of control, the T/C (dose: 50.0 mg/kg/injection, schedule: Q04DX002 (ip), vehicle: gum acacia) was 97 % of control and the T/C (dose: 100.0 mg/kg/injection, schedule: Q04DX002 (ip), vehicle: gum acacia) was 97 % of control. The T/C (dose: 200.0 mg/kg/injection, schedule: Q04DX002 (ip), vehicle: gum acacia) was 89 % of control.

With `CN1C(=O)C(Br)C(C)(Br)c2ccccc21` (configuration not stated) the T/C [4] was 93 % of control, the T/C [5] was 101 % of control and the T/C [6] was 92 % of control.

For `Cc1cc([N+](=O)[O-])c(N/N=C/c2c[nH]c3ccccc23)c([N+](=O)[O-])c1`, the T/C (dose: 100.0 mg/kg/injection, schedule: Q01DX009 (ip), vehicle: saline) was 102 % of control, the T/C (dose: 200.0 mg/kg/injection, schedule: Q01DX009 (ip), vehicle: saline) was 93 % of control and the T/C (dose: 400.0 mg/kg/injection, schedule: Q01DX009 (ip), vehicle: saline) was 98 % of control.

In the case of `O=C(O)c1cc(O)c(O)cc1O`, the T/C (dose: 100.0 mg/kg/injection, schedule: Q01DX001 (ip), vehicle: carboxymethylcellulose (CMC)) is reported as 98 % of control, the T/C (dose: 200.0 mg/kg/injection, schedule: Q01DX001 (ip), vehicle: carboxymethylcellulose (CMC)) is reported as 108 % of control and the T/C (dose: 400.0 mg/kg/injection, schedule: Q01DX001 (ip), vehicle: carboxymethylcellulose (CMC)) is reported as 92 % of control.

In the case of `CC(C)(SCc1ccc([N+](=O)[O-])cc1)C(N)C(=O)O` (configuration not stated), the T/C [10] is reported as 101 % of control, the T/C [11] is reported as 100 % of control and the T/C [12] is reported as 91 % of control.

In the case of `CCC(C)C(=Nc1ccc(Cl)c(Cl)c1)N(C)C` (configuration not stated), the T/C (dose: 55.0 mg/kg/injection, schedule: Q01DX Z (ip), vehicle: methylcellulose (MC)) is reported as 102 % of control, the T/C (dose: 83.0 mg/kg/injection, schedule: Q01DX Z (ip), vehicle: methylcellulose (MC)) is reported as 96 % of control and the T/C (dose: 125.0 mg/kg/injection, schedule: Q01DX Z (ip), vehicle: methylcellulose (MC)) is reported as 104 % of control.

For `CCCCN(CC)C(=S)[S-].CCCCN(CC)C(=S)[S-].[Zn]`, the T/C (dose: 2.5 mg/kg/injection, schedule: Q01DX009 (ip), vehicle: saline) was 100 % of control, the T/C (dose: 5.0 mg/kg/injection, schedule: Q01DX009 (ip), vehicle: saline) was 95 % of control and the T/C (dose: 10.0 mg/kg/injection, schedule: Q01DX001 (ip), vehicle: saline) was 98 % of control. For the same molecule, the T/C (dose: 10.0 mg/kg/injection, schedule: Q01DX009 (ip), vehicle: saline) was 95 % of control, the T/C (dose: 10.0 mg/kg/injection, schedule: Q04DX003 (ip), vehicle: saline) was 105 % of control and the T/C (dose: 20.0 mg/kg/injection, schedule: Q01DX001 (ip), vehicle: saline) was 89 % of control. The T/C (dose: 20.0 mg/kg/injection, schedule: Q04DX003 (ip), vehicle: saline) was 103 % of control and the T/C (dose: 40.0 mg/kg/injection, schedule: Q01DX001 (ip), vehicle: saline) was 91 % of control.

For `CNC(=S)n1cnc(N)n1`, the T/C [13] was 107 % of control, the T/C [4] was 101 % of control and the T/C [5] was 107 % of control.

For `O=C(/C=C/c1ccccc1)CC(=O)c1ccccc1.O=C(/C=C/c1ccccc1)CC(=O)c1ccccc1.[Cu]`, the T/C [13] was 94 % of control, the T/C [4] was 91 % of control and the T/C [5] was 91 % of control. The T/C [6] was 97 % of control.

With `O=[N+]([O-])c1ccc(OCc2ccc(S(=O)(=O)F)c(Cl)c2)c(Cl)c1` the T/C (dose: 100.0 mg/kg/injection, schedule: Q01DX009 (ip), vehicle: other) was 101 % of control, the T/C [7] was 101 % of control and the T/C (dose: 200.0 mg/kg/injection, schedule: Q01DX009 (ip), vehicle: other) was 108 % of control. For the same molecule, the T/C [8] was 104 % of control, the T/C (dose: 400.0 mg/kg/injection, schedule: Q01DX009 (ip), vehicle: other) was 94 % of control and the T/C [9] was 88 % of control.

In the case of `CN(Cc1cnc2nc(N)nc(N)c2n1)c1c(Cl)cc(C(=O)NC(CCC(=O)O)C(=O)O)cc1Br` (configuration not stated), the T/C (dose: 12.5 mg/kg/injection, schedule: Q01DX Z (ip), vehicle: saline) is reported as 162 % of control, the T/C (dose: 25.0 mg/kg/injection, schedule: Q01DX Z (ip), vehicle: saline) is reported as 196 % of control and the T/C (dose: 50.0 mg/kg/injection, schedule: Q01DX Z (ip), vehicle: saline) is reported as 241 % of control and 267 % of control. For the same molecule, the T/C (dose: 200.0 mg/kg/injection, schedule: Q01DX Z (ip), vehicle: saline) was 101 % of control.

With `Cc1nc(Cl)c(C#N)c(C(F)(F)F)c1N` the T/C (dose: 100.0 mg/kg/injection, schedule: Q01DX Z (ip), vehicle: carboxymethylcellulose (CMC)) was 95 % of control.

`O=C(Nc1cccc(C2=NCCN2)c1)Nc1cc(C(=O)Nc2ccc(C3=NCCN3)cc2)ccc1C(=O)Nc1ccc(C2=NCCN2)cc1` was tested, and the T/C (dose: 1.88 mg/kg/injection, schedule: Q01DX Z (ip), vehicle: saline) was 121 % of control, the T/C (dose: 3.75 mg/kg/injection, schedule: Q01DX Z (ip), vehicle: saline) was 123 % of control and the T/C (dose: 3.75 mg/kg/injection, schedule: Q01DX Z (oral), vehicle: saline) was 98 % of control. For the same molecule, the T/C (dose: 7.5 mg/kg/injection, schedule: Q01DX Z (ip), vehicle: saline) was 161 % of control, the T/C (dose: 7.5 mg/kg/injection, schedule: Q01DX Z (oral), vehicle: saline) was 104 % of control and the T/C (dose: 15.0 mg/kg/injection, schedule: Q01DX Z (oral), vehicle: saline) was 103 % of control. For the same molecule, the T/C (dose: 30.0 mg/kg/injection, schedule: Q01DX Z (oral), vehicle: saline) was 101 % of control, the T/C (dose: 62.5 mg/kg/injection, schedule: Q01DX010 (oral), vehicle: saline) was 101 % of control and the T/C (dose: 125.0 mg/kg/injection, schedule: Q01DX010 (oral), vehicle: saline) was 108 % of control. The T/C (dose: 250.0 mg/kg/injection, schedule: Q01DX010 (oral), vehicle: saline) was 105 % of control.

For `O=C(NC1CCCC1)c1ccc(C(=O)NC2CCCC2)cc1`, the T/C [4] was 91 % of control and the T/C [5] was 91 % of control.

With `CC(C)N(C(=O)Nc1cccc(OC(=O)N(C)C)c1)C(C)C` the T/C [14] was 94 % of control, the T/C [15] was 88 % of control and the T/C [16] was 96 % of control.

For `COC(=O)c1ccccc1SSc1ccccc1C(=O)OC`, the T/C [14] was 95 % of control, the T/C [15] was 102 % of control and the T/C [16] was 102 % of control.

For `O=c1ccc2nc3cc(Cl)ccc3sc-2c1`, the T/C (dose: 100.0 mg/kg/injection, schedule: Q01DX009 (ip), vehicle: Klucel (hydroxypropylcellulose) (HPC)) was 95 % of control, the T/C (dose: 200.0 mg/kg/injection, schedule: Q01DX009 (ip), vehicle: Klucel (hydroxypropylcellulose) (HPC)) was 96 % of control and the T/C (dose: 400.0 mg/kg/injection, schedule: Q01DX009 (ip), vehicle: Klucel (hydroxypropylcellulose) (HPC)) was 87 % of control.

`Cc1ncc(C(=O)O)s1` was tested, and the T/C [10] was 90 % of control, the T/C [11] was 95 % of control and the T/C [12] was 98 % of control.

For `CCCC(O)(CCC)C(=O)O`, the T/C [4] was 94 % of control and the T/C [5] was 94 % of control.
